Laboratory results taken from patent US7931791B2, “Method of detecting analyte-biomolecule interactions” (Southern Illinois University Carbondale, priority 2006, dated 2011).

How the values were obtained:
BSA = target: T1, BSA (Bos taurus, UniProt P02769); assay: progesterone ligand binding assay by capillary IEF with fluorescence anisotropy, reference protein; conditions: ~100 nM of each labeled protein, 100 nM fluorescein labeled progesterone, 1% ampholytes, focused at 300V; FIG. 9D
T1 construct: purchased Fisher Scientific (Fairlawn, N.J.)
T1 sequence (P02769 25-607): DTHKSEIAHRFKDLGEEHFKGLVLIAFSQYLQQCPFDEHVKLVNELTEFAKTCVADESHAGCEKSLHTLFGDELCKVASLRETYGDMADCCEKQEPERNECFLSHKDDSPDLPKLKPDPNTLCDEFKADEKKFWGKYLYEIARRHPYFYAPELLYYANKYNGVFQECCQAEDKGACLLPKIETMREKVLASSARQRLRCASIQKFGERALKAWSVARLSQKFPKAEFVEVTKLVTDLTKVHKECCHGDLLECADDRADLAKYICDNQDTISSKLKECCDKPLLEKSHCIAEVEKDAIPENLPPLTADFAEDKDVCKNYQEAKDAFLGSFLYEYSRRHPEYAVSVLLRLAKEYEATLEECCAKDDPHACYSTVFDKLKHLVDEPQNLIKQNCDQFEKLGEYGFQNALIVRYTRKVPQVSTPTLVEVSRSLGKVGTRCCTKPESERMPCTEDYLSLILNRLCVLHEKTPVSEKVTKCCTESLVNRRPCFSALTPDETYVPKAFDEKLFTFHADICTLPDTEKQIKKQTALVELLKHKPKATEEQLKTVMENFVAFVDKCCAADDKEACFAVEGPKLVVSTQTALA
Experimental: Chemicals. Acetic acid, ammonium acetate, hydroxypropyl cellulose (HPC, avg. MW 100,000), HPLC grade dimethylsulfoxide (DMSO), HPLC grade water, BSA, and phosphate buffered saline (PBS, pH 7.4) were obtained from Fisher Scientific (Fairlawn, N.J.). Ampholytes (Pharmolyte 3-10 for IEF) were obtained from Amersham Biosciences (Piscataway, N.J.).
Sample Preparation. TRITC-labeled proteins were prepared according to manufacturer's protocol. […] TRITC was dissolved in DMSO at 1 mg/mL. The TRITC solution was added to the protein sample, and incubated in the dark for 2 hours.
Focusing Capillaries. 75 μm i.d., 360 μm o.d. fused silica capillaries (Polymicro, Phoenix, Ariz.) were coated with hydroxypropyl cellulose (HPC) by filling the capillaries with a 5% HPC solution and then baking them at 200° C. for 45 minutes. This treatment effectively eliminated the electroosmotic flow in the capillary.
cIEF. […]
Fluorescence anisotropy. Fluorescence emission was viewed using a Leica inverted microscope with a 10× long range objective in an epifluorescence configuration. […]
Since the microscope was operated in epifluorescence mode, it was not possible to measure a true anisotropy value. […] Since both the parallel and perpendicular emission intensities were not measured, the anisotropy value could be calculated, but this configuration did permit the detection of areas with increased anisotropies.

[1] = tested on: lysate from MCF-7 breast cancer cells; assay: DIABLA progesterone-protein interactions in a cell lysate; type: binding; conditions: MCF-7 breast cancer cell lysate, protocols as in Example 6
Experimental: The detection sensitivity of DIABLA was tested by examining progesterone-protein interactions in a lysate from MCF-7 breast cancer cells. The experimental protocols were essentially as described above in Example 6, except that a cell lysate was used rather than pure proteins. Five different protein targets that interact with progesterone were identified. FIG. 11 presents one of the targets.

anisotropy in the region containing the focused BSA band (BSA): no or low anisotropy
SMILES: CC(=O)[C@H]1CC[C@H]2[C@@H]3CCC4=CC(=O)CC[C@]4(C)[C@H]3CC[C@]12C [progesterone]
number of protein targets that interact with progesterone identified [1]: Five
